Measurements as given in US9833497B2, “Human originated EGF domain proteins and use of the same” (CHENGDU SOURCEBIO LIMITED-LIABILITY COMPANY, priority 2013, dated 2017).

These substances were tested on E. coli DH5α (assay: Antibacterial activity: MIC and growth curve against E. coli DH5α in 96-well plate). Details: minimal inhibitory concentration against E. coli DH5α; 96-well plate, 5×10^5 CFU/mL, 37° C., judged after 8 h.
Format: cell-based
In short: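 Log-phase bacteria (OD600 ~0.5) resuspended in LB at 5×10^5 CFU/mL, exposed to recombinant protein at 50, 25, 12.5 μg/mL final in triplicate, 37 °C shaking at 175 rpm. OD600 read every 30 min; MIC is lowest concentration showing no growth.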
“PRT760 (KLDSCALGDHGCEHSCVSSEDSFVCQCFEGYILREDGKTCR; listed as Homo sapiens)” was tested, and the MIC was 50 µg/mL.
Work on “PRT780 (EYSSCSRHPCQNGGTCINGRTSFTCACRHPFTGDNCT; listed as Homo sapiens)” yielded an MIC of 12.5 µg/mL.
In the case of “PRT793 (YGEACQQICSCQNGADCDSVTGKCTCAPGFKGIDCS; listed as Homo sapiens)”, the MIC was 25 µg/mL.
“PRT1236 (IGDGCIDMCSGHGRCIQGNCVCDEQWGGLYCD; listed as Homo sapiens)” gave an MIC of 50 µg/mL.

The substances below were run on E. coli BL21 (assay: MIC against Gram-negative bacteria: E. coli BL21). Details: E. coli BL21; 96-well plate, 5×10^5 CFU/mL, 37° C., 10 h.
Format: cell-based
In short: (§1)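 The recombinant human-originated EGF domain proteins were serially diluted two-fold against bacteria at 5×10^5 CFU/mL in LB medium. After shaken incubation at 37° C, the lowest concentration with no bacterial growth was recorded as the MIC.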
“PRT1236 (IGDGCIDMCSGHGRCIQGNCVCDEQWGGLYCD; listed as Homo sapiens)” was tested, and the “MIC against E. coli BL21” value was 25 µg/mL.

Same assay, conditions: E. coli BL21; 10 h cultivation at 37° C.; 5×10^5 CFU/mL
In the case of “PRT760 (KLDSCALGDHGCEHSCVSSEDSFVCQCFEGYILREDGKTCR; listed as Homo sapiens)”, the “MIC (μg/mL) E. coli BL21” value was 25 µg/mL.
In the case of “PRT780 (EYSSCSRHPCQNGGTCINGRTSFTCACRHPFTGDNCT; listed as Homo sapiens)”, the “MIC (μg/mL) E. coli BL21” value was 50 µg/mL.
“PRT793 (YGEACQQICSCQNGADCDSVTGKCTCAPGFKGIDCS; listed as Homo sapiens)” was tested, and the “MIC (μg/mL) E. coli BL21” value was 12.5 µg/mL.

What follows are substances tested on Pseudomonas aeruginosa (assay: MIC against Gram-negative bacteria: Pseudomonas aeruginosa). Details: P. aeruginosa; 10 h cultivation at 37° C.; 5×10^5 CFU/mL.
Format: cell-based
In short: as §1
“PRT760 (KLDSCALGDHGCEHSCVSSEDSFVCQCFEGYILREDGKTCR; listed as Homo sapiens)” was tested, and the “MIC (μg/mL) P. aeruginosa” value was 12.5 µg/mL.
“PRT780 (EYSSCSRHPCQNGGTCINGRTSFTCACRHPFTGDNCT; listed as Homo sapiens)” was tested, and the “MIC (μg/mL) P. aeruginosa” value was 12.5 µg/mL.
For “PRT793 (YGEACQQICSCQNGADCDSVTGKCTCAPGFKGIDCS; listed as Homo sapiens)”, the “MIC (μg/mL) P. aeruginosa” value was 50 µg/mL.

Same assay, conditions: Pseudomonas aeruginosa; 96-well plate, 5×10^5 CFU/mL, 37° C., 10 h
With “PRT1236 (IGDGCIDMCSGHGRCIQGNCVCDEQWGGLYCD; listed as Homo sapiens)” the “MIC against P. aeruginosa” value was 12.5 µg/mL.

What follows are substances tested on Klebsiella pneumonia (assay: MIC against Gram-negative bacteria: Klebsiella pneumonia). Details: K. pneumonia; 10 h cultivation at 37° C.; 5×10^5 CFU/mL.
Format: cell-based
In short: as §1
In the case of “PRT760 (KLDSCALGDHGCEHSCVSSEDSFVCQCFEGYILREDGKTCR; listed as Homo sapiens)”, the “MIC (μg/mL) K. pneumonia” value was 50 µg/mL.
For “PRT780 (EYSSCSRHPCQNGGTCINGRTSFTCACRHPFTGDNCT; listed as Homo sapiens)”, the “MIC (μg/mL) K. pneumonia” value was 50 µg/mL.
With “PRT793 (YGEACQQICSCQNGADCDSVTGKCTCAPGFKGIDCS; listed as Homo sapiens)” the “MIC (μg/mL) K. pneumonia” value was 12.5 µg/mL.

Same assay, conditions: Klebsiella pneumonia; 96-well plate, 5×10^5 CFU/mL, 37° C., 10 h
In the case of “PRT1236 (IGDGCIDMCSGHGRCIQGNCVCDEQWGGLYCD; listed as Homo sapiens)”, the “MIC against K. pneumonia” value was 50 µg/mL.

The substances below were run on Enterobacter cloacae (assay: MIC against Gram-negative bacteria: Enterobacter cloacae). Details: E. cloacae; 10 h cultivation at 37° C.; 5×10^5 CFU/mL.
Format: cell-based
In short: as §1
For “PRT760 (KLDSCALGDHGCEHSCVSSEDSFVCQCFEGYILREDGKTCR; listed as Homo sapiens)”, the “MIC (μg/mL) E. cloacae” value was 12.5 µg/mL.
In the case of “PRT780 (EYSSCSRHPCQNGGTCINGRTSFTCACRHPFTGDNCT; listed as Homo sapiens)”, the “MIC (μg/mL) E. cloacae” value was 12.5 µg/mL.
“PRT793 (YGEACQQICSCQNGADCDSVTGKCTCAPGFKGIDCS; listed as Homo sapiens)” was tested, and the “MIC (μg/mL) E. cloacae” value was 25 µg/mL.

Same assay, conditions: Enterobacter cloacae; 96-well plate, 5×10^5 CFU/mL, 37° C., 10 h
For “PRT1236 (IGDGCIDMCSGHGRCIQGNCVCDEQWGGLYCD; listed as Homo sapiens)”, the “MIC against E. cloacae” value was 12.5 µg/mL.

The substances below were run on Aeromonas hydrophila (assay: MIC against Gram-negative bacteria: Aeromonas hydrophila). Details: A. hydrophila; 10 h cultivation at 37° C.; 5×10^5 CFU/mL.
Format: cell-based
In short: as §1
In the case of “PRT760 (KLDSCALGDHGCEHSCVSSEDSFVCQCFEGYILREDGKTCR; listed as Homo sapiens)”, the “MIC (μg/mL) A. hydrophila” value was 50 µg/mL.
“PRT780 (EYSSCSRHPCQNGGTCINGRTSFTCACRHPFTGDNCT; listed as Homo sapiens)” was tested, and the “MIC (μg/mL) A. hydrophila” value was 50 µg/mL.
With “PRT793 (YGEACQQICSCQNGADCDSVTGKCTCAPGFKGIDCS; listed as Homo sapiens)” the “MIC (μg/mL) A. hydrophila” value was 50 µg/mL.

Same assay, conditions: Aeromonas hydrophila; 96-well plate, 5×10^5 CFU/mL, 37° C., 10 h
“PRT1236 (IGDGCIDMCSGHGRCIQGNCVCDEQWGGLYCD; listed as Homo sapiens)” was tested, and the “MIC against A. hydrophila” value was 50 µg/mL.

These substances were tested on Citrobacter diversus (assay: MIC against Gram-negative bacteria: Citrobacter diversus). Details: C. diversus; 10 h cultivation at 37° C.; 5×10^5 CFU/mL.
Format: cell-based
In short: as §1
“PRT760 (KLDSCALGDHGCEHSCVSSEDSFVCQCFEGYILREDGKTCR; listed as Homo sapiens)” was tested, and the “MIC (μg/mL) C. diversus” value was 12.5 µg/mL.
“PRT780 (EYSSCSRHPCQNGGTCINGRTSFTCACRHPFTGDNCT; listed as Homo sapiens)” was tested, and the “MIC (μg/mL) C. diversus” value was 25 µg/mL.
“PRT793 (YGEACQQICSCQNGADCDSVTGKCTCAPGFKGIDCS; listed as Homo sapiens)” was tested, and the “MIC (μg/mL) C. diversus” value was 25 µg/mL.

Same assay, conditions: Citrobacter diversus; 96-well plate, 5×10^5 CFU/mL, 37° C., 10 h
In the case of “PRT1236 (IGDGCIDMCSGHGRCIQGNCVCDEQWGGLYCD; listed as Homo sapiens)”, the “MIC against C. diversus” value was 12.5 µg/mL.

Each substance was assayed on Moraxella catarrhalis (assay: MIC against Gram-negative bacteria: Moraxella catarrhalis). Details: M. catarrhalis; 10 h cultivation at 37° C.; 5×10^5 CFU/mL.
Format: cell-based
In short: as §1
In the case of “PRT760 (KLDSCALGDHGCEHSCVSSEDSFVCQCFEGYILREDGKTCR; listed as Homo sapiens)”, the “MIC (μg/mL) M. catarrhalis” value was 50 µg/mL.
In the case of “PRT780 (EYSSCSRHPCQNGGTCINGRTSFTCACRHPFTGDNCT; listed as Homo sapiens)”, the “MIC (μg/mL) M. catarrhalis” value was 12.5 µg/mL.
“PRT793 (YGEACQQICSCQNGADCDSVTGKCTCAPGFKGIDCS; listed as Homo sapiens)” was tested, and the “MIC (μg/mL) M. catarrhalis” value was 12.5 µg/mL.

Same assay, conditions: Moraxella catarrhalis; 96-well plate, 5×10^5 CFU/mL, 37° C., 10 h
“PRT1236 (IGDGCIDMCSGHGRCIQGNCVCDEQWGGLYCD; listed as Homo sapiens)” was tested, and the “MIC against M. catarrhalis” value was 12.5 µg/mL.

The substances below were run on Proteus mirabilis (assay: MIC against Gram-negative bacteria: Proteus mirabilis). Details: P. mirabilis; 10 h cultivation at 37° C.; 5×10^5 CFU/mL.
Format: cell-based
In short: as §1
In the case of “PRT760 (KLDSCALGDHGCEHSCVSSEDSFVCQCFEGYILREDGKTCR; listed as Homo sapiens)”, the “MIC (μg/mL) P. mirabilis” value was 12.5 µg/mL.
“PRT780 (EYSSCSRHPCQNGGTCINGRTSFTCACRHPFTGDNCT; listed as Homo sapiens)” was tested, and the “MIC (μg/mL) P. mirabilis” value was 25 µg/mL.
“PRT793 (YGEACQQICSCQNGADCDSVTGKCTCAPGFKGIDCS; listed as Homo sapiens)” was tested, and the “MIC (μg/mL) P. mirabilis” value was 25 µg/mL.

Same assay, conditions: Proteus mirabilis; 96-well plate, 5×10^5 CFU/mL, 37° C., 10 h
For “PRT1236 (IGDGCIDMCSGHGRCIQGNCVCDEQWGGLYCD; listed as Homo sapiens)”, the “MIC against P. mirabilis” value was 25 µg/mL.

These substances were tested on Proteus vulgaris (assay: MIC against Gram-negative bacteria: Proteus vulgaris). Details: P. vulgaris; 10 h cultivation at 37° C.; 5×10^5 CFU/mL.
Format: cell-based
In short: as §1
With “PRT760 (KLDSCALGDHGCEHSCVSSEDSFVCQCFEGYILREDGKTCR; listed as Homo sapiens)” the “MIC (μg/mL) P. vulgaris” value was 50 µg/mL.
For “PRT780 (EYSSCSRHPCQNGGTCINGRTSFTCACRHPFTGDNCT; listed as Homo sapiens)”, the “MIC (μg/mL) P. vulgaris” value was 50 µg/mL.
“PRT793 (YGEACQQICSCQNGADCDSVTGKCTCAPGFKGIDCS; listed as Homo sapiens)” was tested, and the “MIC (μg/mL) P. vulgaris” value was 50 µg/mL.

Same assay, conditions: Proteus vulgaris; 96-well plate, 5×10^5 CFU/mL, 37° C., 10 h
“PRT1236 (IGDGCIDMCSGHGRCIQGNCVCDEQWGGLYCD; listed as Homo sapiens)” was tested, and the “MIC against P. vulgaris” value was 12.5 µg/mL.

What follows are substances tested on Serratia marcescens (assay: MIC against Gram-negative bacteria: Serratia marcescens). Details: S. marcescens; 10 h cultivation at 37° C.; 5×10^5 CFU/mL.
Format: cell-based
In short: as §1
With “PRT760 (KLDSCALGDHGCEHSCVSSEDSFVCQCFEGYILREDGKTCR; listed as Homo sapiens)” the “MIC (μg/mL) S. marcescens” value was 12.5 µg/mL.
In the case of “PRT780 (EYSSCSRHPCQNGGTCINGRTSFTCACRHPFTGDNCT; listed as Homo sapiens)”, the “MIC (μg/mL) S. marcescens” value was 12.5 µg/mL.
“PRT793 (YGEACQQICSCQNGADCDSVTGKCTCAPGFKGIDCS; listed as Homo sapiens)” was tested, and the “MIC (μg/mL) S. marcescens” value was 12.5 µg/mL.

Same assay, conditions: Serratia marcescens; 96-well plate, 5×10^5 CFU/mL, 37° C., 10 h
In the case of “PRT1236 (IGDGCIDMCSGHGRCIQGNCVCDEQWGGLYCD; listed as Homo sapiens)”, the “MIC against S. marcescens” value was 25 µg/mL.
